{
  "source": "paper PMC4326221",
  "about": "(Science translational medicine, 2014)",
  "key": {"KRAS tumors": {"system": "KRAS tumors", "assay": "zoledronate plus rapamycin in vivo", "conditions": "fig. S4D, E"}, "FPPS": {"system": "FPPS", "conditions": "cited from earlier work"}, "[1]": {"system": "Mouse lung cancer cells (6#)", "assay": "drug treatment of 6# cells, phase-contrast microscopy", "format": "cell-based", "conditions": "for effect on cell proliferation / cell death: FTI-277 15 μM, GGTI-298 15 μM, BPH-1222 10 μM"}, "human GGPPS": {"biological_target": "T1, human GGPPS (Homo sapiens, UniProt O95749)", "T1 sequence (O95749 1-300)": "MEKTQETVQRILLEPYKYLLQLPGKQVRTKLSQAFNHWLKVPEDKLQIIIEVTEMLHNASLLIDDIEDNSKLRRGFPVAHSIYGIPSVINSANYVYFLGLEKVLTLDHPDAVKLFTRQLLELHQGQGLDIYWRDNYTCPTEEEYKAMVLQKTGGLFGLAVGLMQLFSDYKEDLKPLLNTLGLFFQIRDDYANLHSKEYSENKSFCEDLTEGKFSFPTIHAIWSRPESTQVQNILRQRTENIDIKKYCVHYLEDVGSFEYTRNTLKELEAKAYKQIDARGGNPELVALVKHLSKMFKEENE", "assay": "GGPPS enzymatic inhibition assay", "format": "biochemical", "conditions": "read-out: GGPPS Ki, in vitro"}, "[2]": {"system": "HRAS, KRAS and RAP1A prenylation in U2OS cells expressing Flag-KRAS G12D", "assay": "cell fractionation assay of protein prenylation", "format": "cell-based", "conditions": "48 h, BPH-1222 10 μM, BPH-714 10 μM, zoledronate 20 μM"}, "[3]": {"system": "GTP-bound KRAS in mouse lung cancer cells (M3L2)", "assay": "KRAS-GTP pull-down with RAF-1 RBD beads", "format": "cell-based", "conditions": "48 h"}, "[4]": {"system": "CHOP, BiP, LC3 in mouse lung cancer cells (6#)", "assay": "ER stress and autophagy markers by immunoblotting", "format": "cell-based"}, "pharmacokinetics test": {"assay": "pharmacokinetics test", "format": "in vivo", "conditions": "single i.v. injection 5 mg/kg, female SD rats"}, "[5]": {"system": "p70 S6 kinase and 4E-BP1 phosphorylation in mouse lung cancer cells (6#)", "assay": "mTOR substrate phosphorylation by immunoblotting", "format": "cell-based", "conditions": "6# cells, rapamycin 0.1 μM, 48 h"}},
  "note": "“And” between values parts separate entries of the source, which are not always exact repeats. Equal values may be shown once.",
  "data": [
    {"smiles": "O=P(O)(O)C(O)(Cn1ccnc1)P(=O)(O)O", "note": "[zoledronate]", "values": [
      {"measurement": "synergy with rapamycin for killing KRAS tumors", "setting": "KRAS tumors", "value": "synergizes with rapamycin in vivo"},
      {"measurement": "FPPS inhibition", "setting": "FPPS", "value": "inhibit FPPS"}
    ]},
    {"smiles": "COC(=O)[C@H](CC(C)C)NC(=O)c1ccc(NC[C@@H](N)CS)cc1-c1cccc2ccccc12", "note": "[GGTI-298]", "values": [
      {"measurement": "effect on cell proliferation / cell death", "setting": "[1]", "value": "little effect on cell proliferation"}
    ]},
    {"smiles": "COC(=O)[C@H](CCSC)NC(=O)c1ccc(NC[C@@H](N)CS)cc1-c1ccccc1", "note": "[FTI-277]", "values": [
      {"measurement": "effect on cell proliferation / cell death", "setting": "[1]", "value": "little effect on cell proliferation"}
    ]},
    {"smiles": "O=P(O)(O)C(O)(Cc1cccnc1)P(=O)(O)O", "note": "[risedronate]", "values": [
      {"measurement": "FPPS inhibition", "setting": "FPPS", "value": "inhibit FPPS"}
    ]},
    {"smiles": "CCCCCCCCn1cc[n+](CC(O)(P(=O)([O-])O)P(=O)(O)O)c1", "note": "(centres unmarked) [BPH-1222]", "values": [
      {"measurement": "Ki", "setting": "human GGPPS", "value": "~300 nM and 300 nM"},
      {"measurement": "inhibition of protein farnesylation and geranylgeranylation (HRAS degradation, RAP1A dislodgement)", "setting": "[2]", "value": "robustly inhibited protein farnesylation as well as protein geranylgeranylation"},
      {"measurement": "amount of GTP-bound KRAS", "setting": "[3]", "value": "greatly reduced the amount of GTP-bound KRAS"},
      {"measurement": "ER stress markers CHOP and BiP protein levels", "setting": "[4]; 6# cells, 10 μM, 1, 2, or 3 days", "value": "potently induced"},
      {"measurement": "time to autophagy induction (accumulation of PE-conjugated LC3)", "setting": "[4]; tumor cells treated with BPH-1222", "value": "2 to 3", "unit": "days"},
      {"measurement": "pharmacokinetic properties", "setting": "pharmacokinetics test", "value": "good pharmacokinetic properties"}
    ]},
    {"smiles": "CO[C@H]1C[C@@H]2CC[C@@H](C)[C@@](O)(O2)C(=O)C(=O)N2CCCC[C@H]2C(=O)O[C@H]([C@H](C)C[C@@H]2CC[C@@H](O)[C@H](OC)C2)CC(=O)[C@H](C)/C=C(\\C)[C@@H](O)[C@@H](OC)C(=O)[C@H](C)C[C@H](C)/C=C/C=C/C=C/1C", "note": "[rapamycin]", "values": [
      {"measurement": "phosphorylation of mTOR substrates (p70 S6 kinase and 4E-BP1)", "setting": "[5]", "value": "potently blocked phosphorylation"}
    ]},
    {"smiles": "CC(C)=CCC/C(C)=C/CC/C(C)=C/CC/C(C)=C/CO", "note": "[GGOH, geranylgeraniol]", "values": [
      {"measurement": "rescue from bisphosphonate-induced cell death", "setting": "[1]; supplementation 10 μM with BPH-1222 10 μM, 48 h", "value": "substantially rescued cells"}
    ]},
    {"smiles": "NCCCC(O)(P(=O)(O)O)P(=O)(O)O", "note": "[alendronate]", "values": [
      {"measurement": "FPPS inhibition", "setting": "FPPS", "value": "inhibit FPPS"}
    ]}
  ]
}
